Data as given in publication PMC5663395, “Chemical Validation of Methionyl-tRNA Synthetase as a Druggable Target in Leishmania donovani” (ACS Infectious Diseases, 2017).

Assays:
LdMetRS = LdMetRS (Leishmania donovani, UniProt A0A3Q8IBX2); assay: LdMetRS biochemical enzyme assay (BIOMOL Green); settings: Table 1; read-out: LdMetRS IC50
Protocol: LdMetRS Assay Development and Kinetic Parameter Determinations
Activity of the LdMetRS enzyme was determined by monitoring levels of pyrophosphate released during the first step of the enzymatic reaction. The pyrophosphate formed was converted to two inorganic phosphate molecules using a pyrophosphatase enzyme and levels of the resulting phosphate molecules measured using the BIOMOL® Green reagent (Enzo Life Sciences) 2.
Following optimization of the assay buffer and determination of the enzyme linearity, 384-well plate based assays were carried out at room temperature in a 50 μl reaction volume containing 30 mM Tris, pH 8.0, 140 mM NaCl, 30 mM KCl, 40 mM MgCl2, 0.01% (v/v) Brij-35, 1 mM DTT, 1 U/ml pyrophosphatase, 50 nM recombinant LdMetRS, and varying concentrations of substrates. Michaelis constants for the ATP and methionine substrates were determined in an end point assay using the above buffer and enzyme conditions. Data were fitted to the modified Michaelis-Menten equations […]
Equation 1 (Hill equation): […]
Equation 2 (High substrate inhibition Michaelis-Menten equation): […]
LdMetRS Inhibitor Studies
All test compounds were solubilized in 100% DMSO to a concentration of 10 mM. To generate IC50 data for the compounds, assay ready plates containing 10-point inhibitor curves (half-log serial dilutions) were prepared using an Echo® 550 (Labcyte).
Following preparation of the inhibitor curves, assays were carried out at room temperature in clear, flat bottom, polystyrene, 384-well plates (Greiner). Each assay was performed in a 50 μl reaction volume containing 30 mM Tris; pH 8.0, 140 mM NaCl, 30 mM KCl, 40 mM MgCl2, 0.01% (v/v) Brij-35, 1 mM DTT, 1 U/ml pyrophosphatase, 50 nM recombinant LdMetRS, 50 µM methionine and 100 µM […]
Assays were performed by adding 25 μl buffer with enzyme to assay plates (with buffer only added to ‘no enzyme’ control wells) before the reaction was initiated with the addition of a 25 μl mix containing methionine, ATP and pyrophosphatase to all wells. Following a 120 min reaction at room temperature the assay was stopped with the addition of 50 μl BIOMOL® Green. The BIOMOL® Green signal was allowed to develop for 30 min before the absorbance of each well was read at 650 nm using an EnVision multilabel plate reader (PerkinElmer Life Sciences). All liquid dispensing steps were carried out using a Thermo Scientific WellMate dispenser (Matrix).
ActivityBase from IDBS (version 8.0.5.4) was used for data processing and analysis. All IC50 curve fitting was undertaken using ActivityBase XE (version 7.7.1) from IDBS. A four-parameter logistic dose-response curve was utilized with prefit used for all four parameters.
For DDD806905 Kiapp determinations, data fitting to the Morrison equation (equation 3) was carried out using GraFit v6.0 (Erithacus Software). It should be noted that data for fitting to the Morrison equation was normalised to a ‘100 µM DDD806905’ control rather than a ‘no enzyme’ control as […]
Equation 3 (Morrison equation): […]
vi = K1 −−([ ] [ ]ET+IT+Ki)−([ ] [ ]ET+IT+i)[ ] [ ]TIE4T
LdMetRS Mode of Inhibition Studies
To establish the mode of inhibition of DDD806905, data sets (generated using the BIOMOL® Green assay platform previously described) were collected by varying both the inhibitor and substrate concentrations. Using GraFit v6.0 (Erithacus Software) each data set was individually fitted to the Michaelis-Menten equation or the modified high substrate inhibition Michaelis-Menten equation described above (equation 2), and the resulting Lineweaver-Burk plots were examined for diagnostic […]
Data sets were then globally fitted to the appropriate model (with equations 4 and 5 used for […]
If more than one model appeared possible, then data were fitted to both and examined for significance using the F-test function in GraFit.

[1] = tested on: L. donovani axenic amastigotes; assay: Leishmania axenic amastigote viability assay; type: cell-based, Leishmania donovani; settings: Leishmania donovani; Table 1; read-out: Leishmania Axenic Amastigote EC50
Protocol: carried out as described above using 5%, 10% and 20% FBS in the media. To examine the effect of the methionine concentration on the potency of DDD806905 parasites were grown in the presence of drug and in the presence (or absence) of 20-fold excess methionine (0.3 g/l). IC50 curve fitting was undertaken in GraFit version 6.0 (Erithacus Software) using a four-parameter logistic dose-response curve (equation 6), with s the slope.
Leishmania Axenic Amastigote Assay
The Leishmania axenic amastigote assay was performed using the method published in Nühs et al 15.
Leishmania Intracellular Amastigote Assay
The intramacrophage Leishmania assay was performed using a modified version of the method described in De Rycker et al 16. […]
amphotericin B was included. Controls were as follows: columns 11 and 12: DMSO, columns 23 and 24: amphotericin B (final concentration 2 µM). 350 nl of compound was pre-dispensed into 384-well sterile intermediary plates. To the intermediary plates, 35 µl of THP-1 media was added and plates were shaken for >5 min to ensure complete mixing. THP-1 cells (8,000 per well, 50 µl) were plated into black clear-bottom 384-well plates (Corning) in presence of 20 nM phorbol 12-myristate 13- […]
in a humidified incubator for 75 h. The cells were then washed with 450 µl sterile phosphate buffered saline (PBS) supplemented with 1 mM CaCl2, 0.5 mM MgCl2, 0.1% (w/v) bovine serum albumin (PBS-A) and amastigotes were added to all wells at a multiplicity of infection of 5 (40,000 amastigotes per well). After 40 min at room temperature, plates were returned to the incubator.
Amastigotes were incubated in the presence of THP-1 macrophages for 16 h. Any remaining extracellular amastigotes were subsequently removed by washing with PBS-A followed by addition of 25 µl of the compound pre-dilutions using an Ipette-pro pipetting station (FluidX). The final dilution of each compound was 200-fold. Plates were incubated for 96 h and then washed (250 µl PBS-A) and fixed (4 % (v/v) formaldehyde-PBS, 30 min, room temperature). After fixation, the wells were washed with 250 µl PBS, stained (10 µg/ml DAPI, 0.4 µg/mL HCS Cellmask Deep Red in PBS + 0.1% (v/v) Triton X-100, 30 min, room temperature) and washed with 250 µl PBS. Finally, PBS + 0.05% (v/v) thimerosal was added to the wells, the plates were sealed and imaged on a high-content microscope (GE IN Cell 2000) using a 10x objective. Image analysis was carried out with GE IN Cell Analyzer 1000 Workstation using the “Multi Target Analysis” module. For each well, i) THP-1 cell count (cytotoxicity readout) and ii) average number of amastigotes per cell (potency readout) were […]

THP-1 lysosomes = assay: Lysosomotropism assay (LysoTracker Red competition); type: cell-based, human; settings: PMA-differentiated THP-1 cells, 30 min
Protocol: calculated, both in terms of pEC50 values. MIC (minimum inhibitory concentration) values are defined as the lowest concentration tested at which maximal inhibition is reached.
THP-1 cells were differentiated in 96-well plates with PMA as described above. Following differentiation the cells were treated for 30 min with dose-response curves of test compounds in presence of 100 nM LysoTracker Red DND-99 (Thermo Fisher) and 5 µg/ml Hoechst 33342. Next cells were washed 3 times with Hanks Buffered Saline Solution (Gibco) and imaged on a Perkin Elmer Operetta system. An image analysis algorithm to measure mean Lysotracker Red DND-99 intensity per cell was developed in Columbus. Mean Intensity was normalised using a no dye control (100% effect) and DMSO treated wells stained with Lysotracker Red DND-99 (0% effect control). Dose-response curves were fitted for the test compounds using a four-parameter equation (equation 5 above) and constrained to 0 and 100% where necessary.
To measure the pKa of DDD806905, a fast UV-metric method was performed using a Sirius T3 instrument (Sirius Analytical, U.K.). The calculation of the pKa was determined using the Sirius T3 refine software (Sirius Analytical, U.K.). In brief, the UV-metric pKa method is based on measuring pH during an acid-base titration and monitoring UV absorbance shift. The ionisation curve (Bjerrum curve) was then used to determine the pH where exactly 50 % of neutral and 50 % of ionised species was present. DDD806905 must be fully dissolved throughout the titration and so the titration is set to start at the pH where DDD806905 is in its fully ionised state. The appearance of precipitate was monitored throughout the experiment by a turbidity sensing device. […] The pKas of DDD806905 was determined at the pH where there was maximal change in UV absorbance with respect to pH. […]
LogD7.4 values were quantified using a Sirius T3 instrument (Sirius Analytical, U.K.). […] The instrument software calculated the pH of each data point using mass and charge balance equations and then fitted this theoretical data to the experimental data. […]

[2] = tested on: Leishmania donovani liver parasite burden; assay: Mouse visceral leishmaniasis efficacy model; settings: 30 mg/kg oral once daily for 10 days

Sequence of LdMetRS (A0A3Q8IBX2 entry or part of it): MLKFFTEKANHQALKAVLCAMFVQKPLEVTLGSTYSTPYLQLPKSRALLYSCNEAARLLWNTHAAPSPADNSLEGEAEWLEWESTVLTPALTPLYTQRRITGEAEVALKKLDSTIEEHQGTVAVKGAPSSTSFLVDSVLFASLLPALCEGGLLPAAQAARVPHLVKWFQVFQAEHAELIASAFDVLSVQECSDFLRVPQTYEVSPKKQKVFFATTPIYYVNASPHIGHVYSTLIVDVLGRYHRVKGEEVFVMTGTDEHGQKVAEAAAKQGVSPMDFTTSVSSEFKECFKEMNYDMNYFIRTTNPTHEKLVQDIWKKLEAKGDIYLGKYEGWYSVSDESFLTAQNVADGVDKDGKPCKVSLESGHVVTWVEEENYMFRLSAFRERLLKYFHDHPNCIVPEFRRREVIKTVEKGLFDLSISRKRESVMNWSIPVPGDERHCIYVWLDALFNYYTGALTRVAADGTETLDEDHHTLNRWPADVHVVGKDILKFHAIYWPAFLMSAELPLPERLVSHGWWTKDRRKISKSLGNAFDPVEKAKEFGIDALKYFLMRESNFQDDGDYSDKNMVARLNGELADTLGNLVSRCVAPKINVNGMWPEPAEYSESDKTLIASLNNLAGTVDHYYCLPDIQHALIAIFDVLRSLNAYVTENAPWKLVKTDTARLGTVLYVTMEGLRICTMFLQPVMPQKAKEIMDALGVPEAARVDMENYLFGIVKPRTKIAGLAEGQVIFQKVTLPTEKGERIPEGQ

Row | IC50 (LdMetRS) [µM] | EC50 [1] [µM] | Compound | competition with lysotracker red accumulation in THP-1 lysosomes (THP-1 lysosomes) | reduction (knock-down) of liver parasite burden (LDU) vs vehicle [2] [%]
1 | 1.9 | 19 | O=c1nc(NCCCNS(=O)(=O)c2cc(Cl)cc(Cl)c2)[nH]c2ccccc12 [Compound 28] | does not compete with lysotracker red | 
2 |  |  | CCCCCCCCCCCCCCCCOP(=O)([O-])OCC[N+](C)(C)C [miltefosine, reference compound] |  | 99.6
